Laboratory results published in patent US20140121107A1, “HERBICIDAL COMPOSITIONS FOR TOLERANT OR RESISTANT RICE CROPS” (Bayer Intellectual Property GmbH, priority 1998, published 2014).
Counter-ions that a name gives are not always drawn.

Experiments:
Type in all cases: in vivo
Cyperus difformis [1] = experiment: Herbicidal effect in rice weeds (field trial, Table 5); conditions: application in the 3-leaf stage, scoring 36 days after application
Procedure: (§1) Transgenic rice plants with a resistance to one or more herbicides (A) together with typical weed plants were grown in the open on 2×5 m plots under natural field conditions; alternatively, weed infestation occurred naturally when the rice plants were grown. Fields were set up for field rice or alternatively also for paddy rice.
(§2) […] The damage to, and the development of, all aerial parts of the plants was recorded. Scoring was done on the basis of a percentage sale (100% action=all plants destroyed; 50% action=50% of the plants and green parts of the plants destroyed; 0% action=no recognizable effect=like control plot. The mean of the score values of in each case 4 plots was calculated.

Echinochloa crus galli [2] = experiment: Herbicidal effect in rice weeds (field trial, Table 9); conditions: application in the 5-6-leaf stage, scoring 36 days after application
Procedure: as §1, §2

Aeschynomene rudis = experiment: Herbicidal effect in rice weeds (field trial, Table 8); conditions: application in the 3-leaf stage, scoring 28 days after application
Procedure: as §1
(§3) 2, 4, 6 and 8 weeks after the application, the herbicidal activity of the active substances or active substance mixtures was scored visually with reference to the treated plots in comparison to untreated control plots. The damage to, and the development of, all aerial parts of the plants was recorded. Scoring was done on the basis of a percentage sale (100% action=all plants destroyed; 50% action=50% of the plants and green parts of the plants destroyed; 0% action=no recognizable effect=like control plot. The mean of the score values of in each case 4 plots was calculated.

Ipomoea sp. = experiment: Herbicidal effect in rice weeds (Table 3); conditions: application in the 4-leaf stage, scoring 2 weeks after application
Procedure: as §1, §3

Cyperus iria = experiment: Herbicidal effect in rice weeds (field trial, Table 6); conditions: application in the 3-leaf stage, scoring 42 days after application
Procedure: as §1, §3

Echinochloa crus galli [3] = experiment: Herbicidal effect in rice weeds (field trial, Table 4); conditions: application in the 4-leaf stage, scoring 42 days after application
Procedure: as §1, §3

Echinochloa crus-galli [4] = experiment: Herbicidal effect in rice weeds (field trial, Table 11); conditions: application in the 4-leaf stage, scoring 26 days after application
Procedure: as §1, §3

Echinochloa crus-galli [5] = experiment: Herbicidal effect in rice broad-leaved weeds (Table 2); conditions: application in the 3-4-leaf stage, scoring 2 weeks after application
Procedure: as §1, §3

Echinochloa crus galli [6] = experiment: Herbicidal effect in rice weeds (field trial, Table 7); conditions: application in the 3-leaf stage, scoring 42 days after application
Procedure: as §1, §3

Cyperus difformis [7] = experiment: Herbicidal effect in rice weeds (field trial, Table 10); conditions: 15 g A.S./ha; application in the 7-leaf stage; scoring 36 days after application
Procedure: as §1
The damage to, and the development of, all aerial parts of the plants was recorded.

For `Cc1nn(-c2cc(CC(Cl)C(=O)O)c(Cl)cc2F)c(=O)n1C(F)F` (racemic) [(B2.13), (RS)-2-chloro-3-[2-chloro-5-(4-difluoromethyl-4,5-dihydro-3-methyl-5-oxo-1H-1,2,4-triazol-1-yl)-4-fluorophenyl]propionic acid], the “Herbicidal action (%) against Cyperus difformis” value (Cyperus difformis [1]; 50 g A.S./ha) was 28%.
For `CP(=O)(O)CCC(N)C(=O)O` (centres unmarked) [(A1.2), glufosinate-monoammonium salt], the “Herbicidal action (%) against Echinochloa crus galli” value (Echinochloa crus galli [2]; 500 g A.S./ha) was 18%, the “Herbicidal action (%) against Aeschynomene rudis” value (Aeschynomene rudis; 250 g A.S./ha) was 65% and the “Herbicidal action (%) against Aeschynomene rudis” value (Aeschynomene rudis; 500 g A.S./ha) was 83%. The “Herbicidal action (%) against Cyperus difformis” value (Cyperus difformis [1]; 400 g A.S./ha) was 18%, the “Herbicidal action (%) against Cyperus difformis” value (Cyperus difformis [1]; 500 g A.S./ha) was 40% and the “Herbicidal action (%) against Ipomoea sp.” value (Ipomoea sp.; 400 g A.S./ha) was 93%. For the same compound, the “Herbicidal action (%) against Cyperus iria” value (Cyperus iria; 400 g A.S./ha) was 35%, the “Herbicidal action (%) against Echinochloa crus galli” value (Echinochloa crus galli [3]; 250 g A.S./ha) was 63% and the “Herbicidal action (%) against Echinochloa crus galli” value (Echinochloa crus galli [3]; 500 g A.S./ha) was 87%. For the same compound, the “Herbicidal action (%) against Echinochloa crus-galli” value (Echinochloa crus-galli [4]; 250 g A.S./ha) was 35%, the “Herbicidal action (%) against Echinochloa crus-galli” value (Echinochloa crus-galli [4]; 500 g A.S./ha) was 75% and the “Herbicidal action (%) against Echinochloa crus-galli” value (Echinochloa crus-galli [5]; 400 g A.S./ha) was 93%. The “Herbicidal action (%) against Echinochloa crus galli” value (Echinochloa crus galli [6]; 400 g A.S./ha) was 65%.
`CCc1cnc(C2=NC(C)(C(C)C)C(=O)N2)c(C(=O)O)c1` (centres unmarked) [(A3.2), imazethapyr] was tested, and the “Herbicidal action (%) against Echinochloa crus galli” value (Echinochloa crus galli [2]; 75 g A.S./ha) was 67%.
In the case of `CCSC(=O)N1CCCCCC1` [(B1.1), S-ethyl azepane-1-thiocarboxylate], the “Herbicidal action (%) against Echinochloa crus galli” value (Echinochloa crus galli [2]; 4480 g A.S./ha) is reported as 0%.
For `CCN(CC)C(=O)SCc1ccc(Cl)cc1` [(B1.2), S-4-chlorobenzyl diethylthiocarbamate], the “Herbicidal action (%) against Cyperus iria” value (Cyperus iria; 1500 g A.S./ha) was 57%.
In the case of `O=C(O)c1c(Cl)ccc2cc(Cl)cnc12` [(B1.3), 3,7-dichloroquinoline-8-carboxylic acid], the “Herbicidal action (%) against Echinochloa crus galli” value (Echinochloa crus galli [6]; 560 g A.S./ha) is reported as 25%.
`CCC(=O)Nc1ccc(Cl)c(Cl)c1` [(B1.4), N-(3,4-dichlorophenyl)-propanamide] was tested, and the “Herbicidal action (%) against Ipomoea sp.” value (Ipomoea sp.; 3360 g A.S./ha) was 90%.
With `CCC(CC)Nc1c([N+](=O)[O-])cc(C)c(C)c1[N+](=O)[O-]` [(B1.5), N-(1-ethylpropyl)-2,6-dinitro-3,4-xylidine] the “Herbicidal action (%) against Cyperus iria” value (Cyperus iria; 1000 g A.S./ha) was 33%.
For `CC1(C)CON(Cc2ccccc2Cl)C1=O` [(B1.12), 2-(2-chlorobenzyl)-4,4-dimethyl-1,2-oxazolidin-3-one], the “Herbicidal action (%) against Echinochloa crus galli” value (Echinochloa crus galli [3]; 400 g A.S./ha) was 7%.
`CC(C)Oc1cc(-n2nc(C(C)(C)C)oc2=O)c(Cl)cc1Cl` [(B1.21)] was tested, and the “Herbicidal action (%) against Cyperus iria” value (Cyperus iria; 250 g A.S./ha) was 37%.
For `O=C(O)COc1ccc(Cl)cc1Cl` [(B2.1), (2,4-dichlorophenoxy)acetic acid], the “Herbicidal action (%) against Cyperus iria” value (Cyperus iria; 500 g A.S./ha) was 62%.
`COC(=O)c1ccccc1CS(=O)(=O)NC(=O)Nc1nc(OC)cc(OC)n1` [(B2.3), methyl 2-[[[[[(4,6-dimethoxy-2-pyrimidinyl)amino]carbonyl]-amino]sulfonyl]methyl]benzoate] was tested, and the “Herbicidal action (%) against Cyperus difformis” value (Cyperus difformis [1]; 35 g A.S./ha) was 55%, the “Herbicidal action (%) against Cyperus difformis” value (Cyperus difformis [1]; 70 g A.S./ha) was 87% and the “Herbicidal action (%) against Echinochloa crus-galli” value (Echinochloa crus-galli [5]; 45 g A.S./ha) was 0%.
For `CCOc1ccccc1OS(=O)(=O)NC(=O)Nc1nc(OC)cc(OC)n1` [(B2.4), 1-(4,6-dimethoxypyrimidin-2-yl)-3-(2-ethoxyphenoxysutfonyl)urea], the “Herbicidal action (%) against Cyperus difformis” value (Cyperus difformis [7]) was 40%.
In the case of `COc1nc(C)nc(NC(=O)NS(=O)(=O)c2ccccc2C(=O)O)n1` [(B2.5), 2-[[[[(4-methoxy-6-methyl-1,3,5-triazin-2-yl)amino]carbonyl]amino]sulfonyl]benzoic acid], the “Herbicidal action (%) against Cyperus iria” value (Cyperus iria; 1 g A.S./ha) is reported as 35%.
In the case of `COc1cc(OC)nc(NC(=O)NS(=O)(=O)c2c(C(=O)O)cnn2C)n1` [(B2.8), 5-(4,6-dimethoxypyrimidin-2-ylcarbamoylsulfamoyl)-1-methylpyrazole-4-carboxylic acid], the “Herbicidal action (%) against Cyperus difformis” value (Cyperus difformis [1]; 15 g A.S./ha) is reported as 65%.
With `CCS(=O)(=O)Oc1ccc2c(c1)C(C)(C)CO2` [(B2.15), 2,3-dihydro-3,3-dimethylbenzofuran-5-yl ethanesulfonate] the “Herbicidal action (%) against Cyperus difformis” value (Cyperus difformis [1]; 200 g A.S./ha) was 35%.
With `CCCC(=NOCC(C)Oc1ccc(Cl)cc1)C1=C(O)CC(C2CCCSC2)CC1=O` (centres unmarked) [(B4.4)] the “Herbicidal action (%) against Echinochloa crus-galli” value (Echinochloa crus-galli [4]; 37.5 g A.S./ha) was 50% and the “Herbicidal action (%) against Echinochloa crus-galli” value (Echinochloa crus-galli [4]; 75 g A.S./ha) was 83%.
